Reference: publication PMC9227781, “Inhibitors of O-Acetylserine Sulfhydrylase with a Cyclopropane-Carboxylic Acid Scaffold Are Effective Colistin Adjuvants in Gram Negative Bacteria” (Pharmaceuticals, 2022)

Tests used:
[1] = target: T1, StOASS-A (Salmonella typhimurium, UniProt P0A1E3); assay: Fluorescence binding assay on purified recombinant StOASS-A; design: species or system S. Typhimurium; details: 20 °C, 100 mM HEPES, 5% DMSO, pH 7.0, racemic mixture, esters tested up to 100 μM
T1 construct: His-tag (with TEV site) (cleaved yes); made in house; host or cells: E. coli Rosetta (DE3)
T1 sequence (P0A1E3 whole entry): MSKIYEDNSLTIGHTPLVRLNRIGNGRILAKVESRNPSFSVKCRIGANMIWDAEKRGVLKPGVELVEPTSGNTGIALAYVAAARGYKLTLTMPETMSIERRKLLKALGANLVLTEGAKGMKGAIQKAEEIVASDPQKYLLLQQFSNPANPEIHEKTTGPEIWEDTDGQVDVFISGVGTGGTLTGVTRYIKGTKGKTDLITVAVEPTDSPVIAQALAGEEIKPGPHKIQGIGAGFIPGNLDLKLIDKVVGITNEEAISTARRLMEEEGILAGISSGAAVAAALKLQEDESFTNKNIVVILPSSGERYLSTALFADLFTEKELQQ
Description: The affinity of the compounds for StOASS-A and StOASS-B was determined on the purified recombinant proteins by an in vitro fluorescence binding assay. Measurements were carried out at 20 °C in a 3 mm pathlength quartz microcuvette in 100 mM HEPES, 5% DMSO (Applichem, Darmstadt, Germany), pH 7.0, using a Fluoromax-4 (Horiba Jobin-Yvon, Kyoto, Japan) spectrofluorometer. Emission spectra of solutions containing 0.2–1.0 μM StOASS, upon excitation of the pyridoxal 5′-phosphate cofactor at 412 nm, in the presence of increasing concentrations of compounds were collected; fluorescence intensities at 500 nm were plotted to compound concentration and data were fitted to a binding isotherm: I=I0+ΔI·compound/KD+compound where I is the fluorescence emission intensity at 500 nm in the presence of a given concentration of compound, I0 is the initial fluorescence emission in the absence of ligands, ΔI is the amplitude of the fluorescence emission change and KD is the dissociation constant. When the KD was lower than the protein concentration, data were fitted to the quadratic equation: I=I0+ΔI·OASS+compound+KD−OASS+compound+KD^2−4·OASS·compound/2
Data were collected in duplicate.
Esters were tested up to a concentration of 100 μM and no binding was observed.

[2] = tested on: S. Typhimurium ATCC14028; assay: MIC by broth microdilution, S. Typhimurium; assay type: cell-based, Salmonella enterica serovar Typhimurium; details: Salmonella enterica; compound alone, MHB, 24 h at 37 °C; read-out: MIC (μg/mL) S. Typhimurium ATCC14028
Description: (§1) MIC values were evaluated following CLSI guidelines with some modifications, as referred to in previous work. Twofold dilutions 25.6–0.05 mg/mL of the tested compounds were performed in DMSO in separate 96-well microtiter U-plates (Greiner, Milan, Italy). In a different 96-well microtiter U-plate, for each well of the replicates, 49 µL of broth medium were added. Then, in each well of the plate, one microliter of each compound at variable dilution in DMSO was added. For each test, three independent experiments with three replicates each were performed. Tested reference bacterial strains (E. coli ATCC25922; S. Typhimurium ATCC14028; K. pneumoniae ATCC13883) were brought to the logarithmic phase of growth in MHB medium by incubation at 37 °C for 24 h. After incubation, bacterial suspensions were centrifuged (2000 rpm, 4 °C for 20 min), and then the pellets were resuspended in 100 mM phosphate buffer, pH 7.0, to reach a final bacterial concentration of 10^8 CFU/mL, adjusted by spectrophotometry (OD620nm ranged between 0.08–0.13). The obtained suspensions were further diluted 1:100 in broth medium to reach a bacterial concentration of 10^6 CFU/mL. Fifty µL of the bacterial suspension containing 10^6 CFU/mL were inoculated into each well within 30 min, to obtain a final concentration of 5 × 10^5 CFU/mL in a total volume of 100 µL. The final dilution range tested was 256–0.5 µg/mL. Growth and sterility controls were performed for each strain and for each tested compound. Plates were then incubated for 24 h at 37 °C in a static aerobic atmosphere. After incubation, plates were read by unaided eye with a microtiter reading mirror and then the OD of each well of the plates was measured spectrophotometrically at 620 nm. MIC values were calculated as the arithmetic mean ± standard deviation (SD) of the unaided eye reading and the inhibition of growth for each tested dilution was calculated from the OD values (mean ± SD). A quality control microorganism (E. coli ATCC 25922) was tested periodically to validate the accuracy of the procedure.

[3] = tested on: K. pneumoniae ATCC13883; assay: MIC by broth microdilution, K. pneumoniae; assay type: cell-based, Klebsiella pneumoniae; details: Klebsiella pneumoniae, ATCC13883; compound alone, MHB, 24 h at 37 °C; read-out: MIC (μg/mL) K. pneumoniae ATCC13883
Description: as §1

[4] = tested on: E. coli ATCC 25922; assay: Checkerboard assay with colistin, E. coli; assay type: cell-based, Escherichia coli; details: for MIC Colistin E. coli: colistin in combination with compound at 8 μg/mL; for FIC Index E. coli / FIC Index interpretation E. coli: compound at 8 μg/mL with colistin; for fold reduction of MIC of colistin, E. coli: compound at 8 µg/mL, versus colistin alone
Description: Antimicrobial activity of associations between the different compounds and colistin (Sigma-Aldrich, St. Louis, MO, USA, lot n. 049M-4836 V) was tested with checkerboard assay with minor modifications, as mentioned in the previous work. For each assay, three experiments with three replicates each were assessed. For each compound tested concentration, 96-wells microtiter U-plates were prepared with twofold serial dilutions of colistin in MHB starting from the MIC value (µg/mL) for ten consecutive dilutions in 50 µL of broth. In each well of the same replicate, 1 µL of each compound in DMSO was added at a fixed concentration, 100 times higher than the final desired concentration (3.2; 1.6; 0.8 mg/mL). Subsequently, 49 µL of the bacterial suspension at a concentration of 10^6 CFU/mL, adjusted spectrophotometrically as reported above, was added to each well, reaching the final bacterial concentration of 5 × 10^5 CFU/mL. Growth and sterility controls were performed for each experiment and for each replicate. Finally, the plates were incubated at 37 °C in aerobic atmosphere for 24 h. After incubation, plates were read by unaided eye with a microtiter reading mirror and then the OD of each well of the plates was measured spectrophotometrically at 620 nm. MIC values were calculated as the arithmetic mean ± SD of the unaided eye reading and the inhibition of growth for each tested dilution was calculated from the OD values (mean ± SD).
To evaluate the antimicrobial effect of the two molecules in association, the FIC index was calculated as follows. The MICs of each of the two molecules tested individually and in combination with each other were evaluated and the results have been included in the following formula as reported by Meletiadis et al.: FIC=MICA in combination/MICA+MICB in combination/MICB where MICA was the MIC of the compound UPAR415 and MICA in combination was the MIC of UPAR415 in combination with colistin. MICB was the MIC of colistin and MICB in combination was the MIC of colistin in combination with UPAR415. From the results of the FIC index formula, the antimicrobial activity in combination of the two molecules can be considered: synergistic, additive, indifferent of antagonistic. If the FIC index is ≤ 0.5, the association is synergic; additive if FIC is between 0.5 and 1; indifferent if FIC is between 1 and 4; and antagonistic if FIC is ≥4 [50].
Statistical analysis of checkerboard results in comparison with MIC values of colistin alone was performed using the Analysis of Variance (ANOVA) test.

Cc1ccc(CC2(C(=O)O)CC2c2cccc(N3CC(C)OC(C)C3)c2)cc1 (stereo not drawn) [Compound 13h, trans-2-(3-(2,6-dimethylmorpholino)phenyl)-1-(4-methylbenzyl)cyclopropanecarboxylic acid]
KD (μM) OASS-A [1]: most potent in vitro activity among the derivatives substituted with heteroaliphatic groups
Kd ([1]; read-out: KD (μM) OASS-A): 0.066 ± 0.005 µM
MIC [2]: > 512 µg/mL
MIC [3]: > 512 µg/mL
MIC Colistin E. coli [4]: 0.18 ± 0.06 µg/mL
FIC Index E. coli [4]: 0.48
FIC Index interpretation E. coli [4]: synergy (If the FIC index is ≤ 0.5, the association is synergic)
fold reduction of MIC of colistin, E. coli [4]: 3 fold

CCOC(=O)C1(Cc2ccc(C)cc2)CC1c1cccc(N2CC(C)OC(C)C2)c1 (stereo not drawn) [Compound 12h, trans-ethyl 2-(3-(2,6-dimethylmorpholino)phenyl)-1-(4-methylbenzyl)cyclopropanecarboxylate]
KD (μM) OASS-A [1]: No binding
MIC [2]: > 512 µg/mL
MIC [3]: > 512 µg/mL
MIC Colistin E. coli [4]: 0.122 ± 0.08 µg/mL
FIC Index E. coli [4]: 0.33
FIC Index interpretation E. coli [4]: synergy (If the FIC index is ≤ 0.5, the association is synergic)
fold reduction of MIC of colistin, E. coli [4]: 2 fold
